Data as given in US20230058623A1, “NOVEL HETEROARYL-TRIAZOLE COMPOUNDS AS PESTICIDES” (Bayer Aktiengesellschaft, priority 2019, published 2023).
Like-named read-outs stand apart in the source and are kept apart here.

Assays:
Assay type in all cases: in vivo
[1] = tested on: Rhipicephalus (Boophilus) microplus larvae (strain Parkhurst, resistant against synthetic pyrethroids); assay: Rhipicephalus (Boophilus) microplus in-vitro contact test, larval cattle tick; details: read-out: activity (efficacy: larvae dead or moribund)
Summary of the method: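 Acetone solutions were coated onto glass tube walls, giving 5 μg/cm^2 at 900 ppm. Once dry, 20–50 pyrethroid-resistant Parkhurst larvae were added per tube and held 48 h at 27 °C and 85% RH. Efficacy was scored by negative geotaxis as the percentage of dead or moribund larvae.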

[2] = tested on: adult engorged female ticks (Rhipicephalus microplus); assay: Rhipicephalus (Boophilus) microplus injection test; details: 168 h, read-out: activity (efficacy: infertile eggs)
Summary of the method: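 Efficacy is scored from egg fertility, with 100% meaning every egg infertile and 0% every egg fertile. Five engorged females per test received 1 μL DMSO solution abdominally. Eggs of unclear fertility were kept until hatching, about 42 days.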

[3] = tested on: adult cat fleas (Ctenocephalides felis); assay: Ctenocephalides felis in-vitro contact test, adult cat flea; details: application rate 5 μg/cm^2 (=500 g/ha), after 48 hours, read-out: activity (efficacy: fleas dead or moribund)
Summary of the method: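 Acetone solutions of compound were coated onto inner walls of glass tubes (900 ppm giving 5 μg/cm^2) and dried; 5-10 adult C. felis were then held 48 h at room temperature. Efficacy = % fleas dead or moribund, judged by inability to escape a 45-50° C heating plate within 5 min.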

[4] = tested on: adult unfed cat fleas (Ctenocephalides felis); assay: Ctenocephalides felis oral test; details: 48 h, read-out: activity (mortality)
Experimental: Ctenocephalides felis—Oral Test
Solvent: dimethyl sulfoxide
To produce a suitable preparation of active compound, 10 mg of active compound are dissolved in 0.5 mL solvent, and the concentrate is diluted with citrated cattle blood to the desired concentration.
Approximately 20 adult unfed cat fleas (Ctenocephalides felis) are placed in a flea chamber whose top and bottom is covered with gauze. A chamber whose bottom is sealed with parafilm, is filled with the blood-compound solution and placed on top of the flea chamber, so that the fleas can suck the blood. The blood chamber is heated to 37° C. whereas the flea chamber is kept at room temperature.
After 2 days mortality in % is determined. 100% means all the fleas have been killed; 0% means none of the fleas have been killed.

[5] = tested on: adult brown dog ticks (Rhipicephalus sanguineus); assay: Rhipicephalus sanguineus in-vitro contact test, adult brown dog ticks; details: application rate 5 μg/cm^2 (=500 g/ha), after 48 hours, read-out: activity (efficacy: ticks dead or moribund)
Summary of the method: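 Efficacy (%) reflects the fraction of adult ticks dead or moribund after 48 h of contact with a dried acetone film on tube walls at 5 μg/cm^2 (from 900 ppm). Moribund status was assessed by inability to climb away from heat at 45-50° C.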

[6] = tested on: green peach aphid (Myzus persicae); assay: Myzus persicae oral test; details: 120 h, read-out: activity (mortality)
Summary of the method: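 Oral uptake format: water-diluted acetone concentrate of compound is blended into IPL41 medium carrying 33%+15% sugar and offered under a parafilm membrane. Percentage of dead insects is recorded after 5 days.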

[7] = tested on: green peach aphid (Myzus persicae); assay: Myzus persicae spray test; details: foliar, 120 h, read-out: activity (mortality)
Summary of the method: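 Chinese cabbage leaf disks infested with all aphid instars were sprayed with compound diluted in water containing emulsifier (1000 ppm). Mortality (%) was scored after 5 days, 100% meaning all aphids killed.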

[8] = tested on: fall armyworm larvae (Spodoptera frugiperda); assay: Spodoptera frugiperda spray test; details: 168 h, application rate 100 g/ha, after 7 days, maize leaf sections
Summary of the method: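 Caterpillars are placed on sprayed, dried maize leaf sections. Sprays contain compound diluted in water with emulsifier at 1000 ppm; mortality in % is determined 7 days later.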

[9] = tested on: adult mosquitoes Aedes aegypti strain MONHEIM; assay: Aedes aegypti test (AEDSAE surface treatment & contact assay); details: surface concentration 20 mg/m^2, exposure 30 minutes, 24 hours after contact, read-out: efficacy (mortality)
Experimental: Aedes aegypti Test (AEDSAE Surface Treatment & Contact Assay)
(§1) Solvent: Aceton+2000 ppm rapeseed oil methyl ester (RME)
(§2) In order to produce a sufficient, active ingredient containing solution it is necessary to solve the test compound in the solvent-mix (acetone at 2 mg/ml/RME 2000 ppm). This solution is pipetted onto a glazed tile and after evaporation of the acetone, adult mosquitoes of the species Aedes aegypti strain MONHEIM are placed onto the dried surface. The exposure time is 30 minutes.
(§3) Mortality in percent (%) is determined 24 hours after contact of the insects to the treated surface. 100% mortality means that all tested insects are dead, whereas 0% means that no insect died.

[10] = tested on: larvae of the banded cucumber beetle (Diabrotica balteata); assay: Diabrotica balteata spray test; details: 168 h, application rate 100 g/ha (=32 μg/well), after 7 days, wheat seeds, read-out: activity (efficacy: seedlings grown)
Summary of the method: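 Wheat seeds germinated 1 day on agar were sprayed with compound diluted in water with 1000 ppm emulsifier, then infested with 10-20 Diabrotica balteata larvae. Efficacy in % scored after 7 days: 100% = seedlings grown as untreated, uninfected control; 0% = no seedlings grown.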

[11] = tested on: larvae of the southern green stink bug (Nezara viridula); assay: Nezara viridula spray test; details: 96 h; for mortality at 100 g/ha: application rate 100 g/ha, after 4 days, barley plants
Summary of the method: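 Barley plants sprayed with the active compound in emulsifier-containing water, then infested with stink bug larvae. Mortality scored in % after 4 days, with 100% meaning all insects killed.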

[12] = tested on: adult flies Musca domestica strain WHO-N; assay: Musca domestica test (MUSCDO surface treatment & contact assay); details: 24 hours after contact, read-out: efficacy (mortality)
Experimental: Musca domestica Test (MUSCDO Surface Treatment & Contact Assay)
as §1
as §2, with “flies” for “mosquitoes”, “Musca domestica” for “Aedes aegypti”, “WHO-N” for “MONHEIM”
as §3

[13] = tested on: brown planthopper (Nilaparvata lugens); assay: Nilaparvata lugens spray test; details: 96 h, application rate 500 g/ha, after 4 days, rice plants
Experimental: Nilaparvata lugens—Spray Test
To produce a suitable preparation of active compound, 1 part by weight of active compound is mixed with the stated amount of solvents and is diluted with water, containing an emulsifier concentration of 1000 ppm, to the desired concentration. Further test concentrations are prepared by dilution with emulsifier containing water.
Rice plants (Oryza sativa) are sprayed with a preparation of the active ingredient of the desired concentration and the plants are infested with the brown planthopper (Nilaparvata lugens).
After 4 days mortality in % is determined. 100% means all planthoppers have been killed and 0% means none of the planthoppers have been killed.

[14] = application rate 1 μg/cm^2 (=100 g/ha), after 48 hours
[15] = application rate 5 μg/cm^2 (=500 g/ha), after 48 hours
[16] = application rate 4 μg/tick, egg deposition after 7 days
[17] = application rate 100 g/ha, after 5 days, Chinese cabbage leaf disks

Compound	pest or weed control at 1 µg/cm2, 100 g/ha [1, 14] [%]	pest or weed control at 5 µg/cm2, 500 g/ha [1, 15] [%]	pest or weed control at 0.004 mg [2, 16] [%]	pest or weed control at 5 µg/cm2 [3] [%]	mortality at 100 ppm [4] [%]	pest or weed control at 5 µg/cm2, 500 g/ha [5] [%]	mortality at 4 ppm [6] [%]	mortality at 100 g/ha [7, 17] [%]	mortality at 100 g/ha [8] [%]	mortality at 20 mg/m2 [9] [%]	pest or weed control at 32 µg/disc, 100 g/ha [10] [%]	mortality at 100 g/ha [11] [%]	pest or weed control at 1 µg/cm2, 100 g/ha ([1]; 48 h) [%]	pest or weed control at 5 µg/cm2, 500 g/ha ([1]; 48 h) [%]	mortality at 100 g/ha ([7]; in Brassica rapa) [%]	pest or weed control at 0.004 mg [2] [%]	mortality at 500 g/ha ([11]; in Hordeum vulgare, read-out: activity (mortality)) [%]	mortality at 4 mg/m2 ([12]; surface concentration 4 mg/m^2, exposure 30 minutes) [%]	mortality at 20 mg/m2 ([12]; surface concentration 20 mg/m^2, exposure 30 minutes) [%]	mortality at 500 g/ha [13] [%]
Cc1nc([C@H](C)NC(=O)c2cc(Cl)cc(C(F)(F)F)c2)n(-c2ccc(C(=O)N3CC(F)C3)cn2)n1 [Example I-20]	90	100	100	100	100	100	100	90	100	80 to 100										
Cc1nc([C@H](C)NC(=O)c2cc(Cl)cc(C(F)(F)F)c2)n(-c2ccc(C(=O)N3CCC3)cn2)n1 [Example I-23]	90	90	100	100	90	100	100	90	100	80 to 100										
COC1CN(C(=O)c2ccc(-n3nc(C)nc3[C@H](C)NC(=O)c3cc(Cl)cc(C(F)(F)F)c3)nc2)C1 [Example I-24]	100	100	100	90	80	100	100	100	100	80 to 100										
C[C@@H]1CN(C(=O)c2ccc(-n3ncnc3[C@H](C)NC(=O)c3cc(Cl)cc(C(F)(F)F)c3)nc2)CCO1 [Example I-32]	100	100	100	100	90	100	100	100	100		100									
C[C@H](NC(=O)c1cc(Cl)cc(C(F)(F)F)c1)c1ncnn1-c1ccc(C(=O)N2CCOC[C@H]2C)cn1 [Example I-33]	100	100	100		100	100			100			90								
C[C@@H]1CN(C(=O)c2ccc(-n3ncnc3[C@H](C)NC(=O)c3cc(Cl)cc(C(F)(F)F)c3)nc2)C[C@@H](C)O1 [Example I-40]	100	100	100		90	100	100	90		80 to 100	100									
C[C@H](NC(=O)c1cc(Cl)cc(C(F)(F)F)c1)c1ncnn1-c1ccc(C(=O)N2CC3CC(C2)O3)cn1 [Example I-41]			100	80	100	100	100				100		100	100	90					
Cc1nc([C@H](C)NC(=O)c2cc(C(F)(F)F)cc(C(F)(F)F)c2)n(-c2ccc(C(=O)N3CCC[Si](C)(C)C3)cn2)n1 [Example I-93]					100								90	90		100	90			
Cc1nc([C@H](C)NC(=O)c2cc(C(F)(F)F)cc(C(F)(F)F)c2)n(-c2ccc(C(=O)N3C[C@H](C)O[C@@H](C)C3)cn2)n1 [Example I-95]	100	100	100	100	100	100			100		100	100								
Cc1nc([C@H](C)NC(=O)c2cc(OC(F)(F)F)cc(C3CC3)c2)n(-c2ccc(C(=O)N3C[C@@H](C)O[C@@H](C)C3)cn2)n1 [Example I-115]	90	90	100	100	100	100	100	90			80							80 to 100	80 to 100	
C[C@@H]1CN(C(=O)c2ccc(-n3ncnc3[C@H](C)NC(=O)c3cc(OC(F)(F)F)cc(C4CC4)c3)nc2)C[C@@H](C)O1 [Example I-116]	100	100	100	100	100	80	100	90			80									
C[C@@H]1CN(C(=O)c2cnc(-n3ncnc3[C@H](C)NC(=O)c3cc(OC(F)(F)F)cc(S(C)(=O)=O)c3)nc2)C[C@H](C)O1 [Example I-145]											100									100
